Test results as given in ChEMBL document CHEMBL1921675, “Synthesis and cytotoxic evaluation of novel paraconic acid analogs” (Bioorg Med Chem Lett, 2011).

How the values were obtained:
HL-60 [1] = assay: Antiproliferative activity against human HL60 cells assessed as cellular growth inhibition at 10 uM after 72 hrs by MTS assay; assay type: functional; conditions: HL-60, 72 h, read-out: GI
MCF7 [2] = assay: Antiproliferative activity against human MCF7 cells assessed as cellular growth inhibition at 10 uM after 72 hrs by MTS assay; assay type: functional; conditions: MCF7, 72 h, read-out: GI
KB [3] = assay: Antiproliferative activity against human KB cells assessed as cellular growth inhibition at 10 uM after 72 hrs by MTS assay; assay type: functional; conditions: read-out: GI
HCT-116 [4] = assay: Antiproliferative activity against human HCT116 cells assessed as cellular growth inhibition at 10 uM after 72 hrs by MTS assay; assay type: functional; conditions: HCT-116, 72 h, read-out: GI
HL-60 [5] = assay: Antiproliferative activity against human HL60 cells after 72 hrs by MTS assay; assay type: functional, cell-based; conditions: HL-60, 72 h
[6] = Antiproliferative activity against human HL60R cells assessed as cellular growth inhibition at 10 uM after 72 hrs by MTS assay; assay type: functional; conditions: read-out: GI
MCF7 [7] = assay: Antiproliferative activity against human MCF7 cells after 72 hrs by MTS assay; assay type: functional, cell-based; conditions: MCF7, 72 h
KB [8] = assay: Antiproliferative activity against human KB cells after 72 hrs by MTS assay; assay type: functional, cell-based
[9] = Antiproliferative activity against human MCF7/R cells assessed as cellular growth inhibition at 10 uM after 72 hrs by MTS assay; assay type: functional; conditions: MCF7R, read-out: GI
SK-OV-3 = assay: Antiproliferative activity against human SKOV3 cells assessed as cellular growth inhibition at 10 uM after 72 hrs by MTS assay; assay type: functional; conditions: SK-OV-3, 72 h, read-out: GI
HCT-116 [10] = assay: Antiproliferative activity against human HCT116 cells after 72 hrs by MTS assay; assay type: functional, cell-based; conditions: HCT-116, 72 h
PC-3 = assay: Antiproliferative activity against human PC3 cells assessed as cellular growth inhibition at 10 uM after 72 hrs by MTS assay; assay type: functional; conditions: PC-3, 72 h, read-out: GI

| Compound | inhibition of growth at 10 µM (HL-60 [1]) | inhibition of growth at 10 µM (MCF7 [2]) | inhibition of growth at 10 µM (KB [3]) | inhibition of growth at 10 µM (HCT-116 [4]) | IC50 (HL-60 [5]) | inhibition of growth at 10 µM [6] | IC50 (MCF7 [7]) | IC50 (KB [8]) | inhibition of growth at 10 µM [9] | inhibition of growth at 10 µM (SK-OV-3) | IC50 (HCT-116 [10]) | inhibition of growth at 10 µM (PC-3) |
| --- | --- | --- | --- | --- | --- | --- | --- | --- | --- | --- | --- | --- |
| COC(=O)[C@@]1(Cc2ccc(OC)cc2)CC(=O)O[C@]1(C)c1ccccc1 | 68% | 59% | 98% | 56% | – | – | – | – | – | – | – | – |
| COC(=O)C1(Cc2ccccc2)CC(=O)OC1c1ccccc1 (mixture of isomers) | 22% | 0% | 18% | 0% | – | – | – | – | – | – | – | – |
| COC(=O)C1(Cc2ccc(OC)cc2)CC(=O)OC1c1ccccc1 (mixture of isomers) | 15% | 0% | 19% | 4% | – | – | – | – | – | – | – | – |
| COC(=O)c1ccc(CC2(C(=O)OC)CC(=O)OC2c2ccccc2)cc1 (mixture of isomers) | 19% | 0% | 12% | 0% | – | – | – | – | – | – | – | – |
| COC(=O)C1(Cc2cccc(C(F)(F)F)c2)CC(=O)OC1c1ccccc1 (mixture of isomers) | 34% | 11% | 39% | 14% | – | – | – | – | – | – | – | – |
| COC(=O)C1(Cc2ccc3c(c2)OCO3)CC(=O)OC1c1ccccc1 (mixture of isomers) | 18% | 11% | 0% | 18% | – | – | – | – | – | – | – | – |
| COC(=O)C1(Cc2ccc(OC)cc2)CC(=O)OC1c1ccccc1C(F)(F)F (mixture of isomers) | 23% | 0% | 31% | 0% | – | – | – | – | – | – | – | – |
| COC(=O)C1(Cc2ccc(OC)cc2)CC(=O)OC1c1ccc(C(F)(F)F)cc1 (mixture of isomers) | 2% | 4% | 0% | 0% | – | – | – | – | – | – | – | – |
| COC(=O)C1(Cc2ccc(OC)cc2)CC(=O)OC1c1ccc(F)cc1 (mixture of isomers) | 37% | 4% | 33% | 0% | – | – | – | – | – | – | – | – |
| COC(=O)C1(Cc2ccc(OC)cc2)CC(=O)OC1c1ccco1 (mixture of isomers) | 29% | 0% | 32% | 0% | – | – | – | – | – | – | – | – |
| CCCCCCC1OC(=O)CC1(Cc1ccc(OC)cc1)C(=O)OC (mixture of isomers) | 8% | 28% | 13% | 12% | – | – | – | – | – | – | – | – |
| COC(=O)C1(Cc2ccccc2)CC(=O)OC1(C)c1ccccc1 (mixture of isomers) | 22% | 13% | 6% | 9% | – | – | – | – | – | – | – | – |
| COC(=O)C1(Cc2ccc(OC)cc2)CC(=O)OC1(C)c1ccccc1 (mixture of isomers) | 82% | 56% | 95% | 61% | 870 nM | 92% | 2760 nM | 590 nM | 82% | 76% | 1350 nM | 68% |
| COC(=O)C1(Cc2cccc(C(F)(F)F)c2)CC(=O)OC1(C)c1ccccc1 (mixture of isomers) | 21% | 20% | 21% | 22% | – | – | – | – | – | – | – | – |
| COC(=O)C1(Cc2ccc(OC)cc2)CC(=O)OC1(C)c1cccc(C(F)(F)F)c1 (mixture of isomers) | 52% | 46% | 38% | 30% | – | – | – | – | – | – | – | – |
| CCC1(c2ccccc2)OC(=O)CC1(Cc1ccc(OC)cc1)C(=O)OC (mixture of isomers) | 30% | 21% | 11% | 28% | – | – | – | – | – | – | – | – |
| COC(=O)C1(Cc2ccc(OC)cc2)CC(=O)OC1(c1ccccc1)C(F)(F)F (mixture of isomers) | 64% | 8% | 56% | 20% | – | – | – | – | – | – | – | – |
| COC(=O)C1(Cc2ccccc2)CC(=O)OC12CCCCC2 (racemic) | 4% | 1% | 7% | 0% | – | – | – | – | – | – | – | – |
